Source: patent US8221729B2, “Use of aminophenylbenzotriazole derivatives for protecting human and animal skin and hair from the harmful effects of UV radiation and cosmetic compositions thereof” (BASF SE, priority 2006, dated 2012)

Assay: UV-spectrum in ethanol
Assay type: physicochemical
Settings: for UV-spectrum: ε: at λmax, in M-1cm-1 (unit assumed)

Structure (SMILES) | UV-spectrum: λmax [nm] | UV-spectrum: ε
CCN(CC)c1ccc(-n2nc3ccccc3n2)c(O)c1 [Example A-1] | 385 | 29591
CCCCCC(=O)Nc1ccc(-n2nc3ccccc3n2)c(O)c1 [Example A-2] | 346 | 29933
